According to US20120190687A1, “Pyrazinylpyrazoles” (Bayer CropScience Ag, priority 2009, published 2012):

What was measured:
[1] = logP by reversed-phase HPLC (EEC Directive 79/831 Annex V.A8); type: physicochemical
Excerpt: [table] The calibration is effected with unbranched alkan-2-ones (having 3 to 16 carbon atoms) with known log P values (log P values determined on the basis of the retention times by linear interpolation between two successive alkanones).

Phaedon cochleariae = assay: Phaedon test (PHAECO spray treatment); type: in vivo; settings: 500 g/ha, Chinese cabbage discs, after 7 days
Experimental: Phaedon Test ([…] Spray Treatment) Solvent: 78.0 parts by weight of acetone • • 1.5 parts by weight of dimethylformamide Emulsifier: 0.5 part by weight of alkylaryl polyglycol ether To prepare an appropriate active ingredient preparation, 1 part by weight of active ingredient is mixed with the stated amounts of solvent and emulsifier, and the concentrate is diluted with emulsifier-containing water to the desired concentration. Discs of Chinese cabbage (Brassica pekinensis) are sprayed with an active ingredient preparation of the desired concentration and, after drying, populated with larvae of the mustard beetle (Phaedon cochleariae). After 7 days, the efficacy in % is determined. 100% means that all beetle larvae have been killed; 0% means that none of the beetle larvae have been killed.

Tetranychus urticae = assay: Tetranychus test, OP-resistant (TETRUR spray treatment); type: in vivo; settings: bean leaf discs, after 6 days
Experimental: Tetranychus Test, OP-resistant (TETRUR Spray Treatment)
Solvent: 78.0 parts by weight of acetone • • 1.5 parts by weight of dimethylformamide
Emulsifier: 0.5 part by weight of alkylaryl polyglycol ether
To prepare an appropriate active ingredient preparation, 1 part by weight of active ingredient is mixed with the stated amounts of solvent and emulsifier, and the concentrate is diluted with emulsifier-containing water to the desired concentration. Discs of bean leaves (Phaseolus vulgaris) infested by all stages of the red spider mite (Tetranychus urticae) are sprayed with an active ingredient preparation of the desired concentration. After 6 days, the efficacy in % is determined. 100% means that all spider mites have been killed; 0% means that none of the spider mites have been killed.

Spodoptera frugiperda = Spodoptera frugiperda test (SPODFR spray treatment); type: in vivo; settings: 500 g/ha, maize leaf discs, after 7 days
Experimental: Spodoptera frugiperda Test (SPODFR Spray Treatment) Solvent: 78.0 parts by weight of acetone • • 1.5 parts by weight of dimethylformamide Emulsifier: 0.5 part by weight of alkylaryl polyglycol ether To prepare an appropriate active ingredient preparation, 1 part by weight of active ingredient is mixed with the stated amounts of solvent and emulsifier, and the concentrate is diluted with emulsifier-containing water to the desired concentration. Discs of maize leaves (Zea mays) are sprayed with an active ingredient preparation of the desired concentration and, after drying, populated with caterpillars of the armyworm (Spodoptera frugiperda). After 7 days, the efficacy in % is determined. 100% means that all caterpillars have been killed; 0% means that none of the caterpillars have been killed.

[2] = * LC-MS, acidic range, pH 2.7, 0.1% aqueous formic acid / acetonitrile
[3] = ** acidic range, pH 2.3, 0.1% aqueous phosphoric acid / acetonitrile

SMILES	log P [1, 2]	efficacy (Phaedon cochleariae) [%]	also measured
Nc1c(-c2ccc(Cl)c(Cl)c2)c(C(F)(F)F)nn1-c1nccnc1Cl [Ex. 1]	4.02*	–	log P [1, 3]: 3.99**;
Nc1c(-c2ccc(Cl)cc2)c(C(F)(F)F)nn1-c1nccnc1Cl [Ex. 7]	3.59*	–	–
CC(C)Oc1nccnc1-n1nc(C(F)(F)F)c(-c2cc(Cl)cc(C(F)(F)F)c2)c1N [Ex. 13]	4.84*	83	–
Nc1c(-c2cc(Cl)cc(C(F)(F)F)c2)c(C(F)(F)F)nn1-c1nccnc1Cl [Ex. 16]	4.28*	–	–
Nc1c(-c2cc(Cl)cc(C(F)(F)F)c2)c(C(F)(F)F)nn1-c1cncc(Cl)n1 [Ex. 19]	5.26*	–	–
Cc1nccnc1-n1nc(C(F)(F)F)c(-c2cc(Cl)cc(C(F)(F)F)c2)c1N [Ex. 23]	4.32*	100	efficacy (Tetranychus urticae; 500 g/ha): 100%
Cc1cnc(C)c(-n2nc(C(F)(F)F)c(-c3cc(Cl)cc(C(F)(F)F)c3)c2N)n1 [Ex. 24]	4.56*	–	–
CN(C)c1nccnc1-n1nc(C(F)(F)F)c(-c2cc(Cl)cc(C(F)(F)F)c2)c1N [Ex. 25]	4.28*	–	–
N#Cc1nccnc1-n1nc(C(F)(F)F)c(-c2cc(Cl)cc(C(F)(F)F)c2)c1N [Ex. 27]	3.93*	100	–
C[S+]([O-])c1nccnc1-n1nc(C(F)(F)F)c(-c2cc(Cl)cc(C(F)(F)F)c2)c1N (stereo not shown) [Ex. 29]	3.29*	–	–
CS(=O)(=O)c1nccnc1-n1nc(C(F)(F)F)c(-c2cc(Cl)cc(C(F)(F)F)c2)c1N [Ex. 30]	3.54*	–	–
Nc1c(-c2cc(Cl)cc(C(F)(F)F)c2)c(C(F)(F)F)nn1-c1nccnc1-n1cccn1 [Ex. 31]	3.94*	–	–
COc1nccnc1-n1nc(C(F)(F)F)c(-c2cc(Cl)cc(C(F)(F)F)c2)c1N(Cc1ccccc1)Cc1ccccc1 [Ex. 32]	6.67*	–	–
CCOc1nccnc1-n1nc(C(F)(F)F)c(-c2cc(Cl)cc(C(F)(F)F)c2)c1N(Cc1ccccc1)Cc1ccccc1 [Ex. 34]	7*	–	–
CCOc1nccnc1-n1nc(C(F)(F)F)c(-c2cc(Cl)cc(C(F)(F)F)c2)c1NCc1ccccc1 [Ex. 35]	5.62*	–	efficacy (Tetranychus urticae; 500 g/ha): 90%
CCOc1nccnc1-n1nc(C(F)(F)F)c(-c2cc(Cl)cc(C(F)(F)F)c2)c1N(Cc1ccc(Cl)cc1)Cc1ccc(Cl)cc1 [Ex. 36]	–	–	log P [1, 3]: 7.36**
CCOc1nccnc1-n1nc(C(F)(F)F)c(-c2cc(Cl)cc(C(F)(F)F)c2)c1NCc1ccc(Cl)cc1 [Ex. 37]	5.84*	–	–
COc1nccnc1-n1nc(C(F)(F)F)c(-c2cc(Cl)cc(C(F)(F)F)c2)c1N(Cc1ccc(Cl)cc1)Cc1ccc(Cl)cc1 [Ex. 38]	7.11*	–	–
COc1nccnc1-n1nc(C(F)(F)F)c(-c2cc(Cl)cc(C(F)(F)F)c2)c1NCc1ccc(Cl)cc1 [Ex. 39]	5.51*	–	–
CCOc1nccnc1-n1nc(C(F)(F)F)c(-c2cc(Cl)cc(C(F)(F)F)c2)c1NCc1ccc(OC)cc1 [Ex. 40]	5.47*	–	–
COc1ccc(CN(Cc2ccc(OC)cc2)c2c(-c3cc(Cl)cc(C(F)(F)F)c3)c(C(F)(F)F)nn2-c2nccnc2OC)cc1 [Ex. 42]	6.25*	–	–
CCOc1nccnc1-n1nc(C(F)(F)F)c(-c2cc(Cl)cc(C(F)(F)F)c2)c1N(Cc1ccc(OC)cc1)Cc1ccc(OC)cc1 [Ex. 43]	6.57*	100	efficacy (Spodoptera frugiperda): 100%
Nc1c(-c2cc(Cl)cc(C(F)(F)F)c2)c(C(F)(F)F)nn1-c1nccnc1-n1ccnc1 [Ex. 44]	2.76*	100	efficacy (Spodoptera frugiperda): 100%
Nc1c(-c2cc(Cl)cc(C(F)(F)F)c2)c(C(F)(F)F)nn1-c1nccnc1-n1cc(F)cn1 [Ex. 45]	4.24*	–	–
COc1nccnc1-n1nc(C(F)(F)F)c(-c2cc(C(F)(F)F)cc(Cl)n2)c1N [Ex. 55]	4.54*	–	–
Nc1c(-c2cc(Cl)cc(Cl)c2)c(C(F)(F)F)nn1-c1nccnc1Cl [Ex. 56]	4.16*	–	–

SMILES	log P [1, 2]	efficacy (Phaedon cochleariae) [%]	also measured
COc1nccnc1-n1nc(C(F)(F)C(F)F)c(-c2cc(Cl)c3c(c2)OCO3)c1N [Ex. 65]	3.18*	100	efficacy (Spodoptera frugiperda): 100%; efficacy (Tetranychus urticae; 500 g/ha): 90%
COc1nccnc1-n1nc(C(F)(F)C(F)F)c(-c2cc(Cl)c3c(c2)CCO3)c1N [Ex. 66]	3.22*	100	efficacy (Spodoptera frugiperda): 100%; efficacy (Tetranychus urticae; 500 g/ha): 90%
COc1nccnc1-n1nc(C(F)(F)F)c(-c2cc(Cl)c(Cl)c(C(F)(F)F)c2)c1N [Ex. 86]	–	100	log P [1, 3]: 4.47**; efficacy (Spodoptera frugiperda): 100%
C=C(C)CNc1c(-c2cc(Cl)cc(C(F)(F)F)c2)c(C(F)(F)F)nn1-c1nccnc1OC [Ex. 96]	–	–	efficacy (Tetranychus urticae; 500 g/ha): 100%
C#CCN(CC#C)c1c(-c2cc(Cl)cc(C(F)(F)F)c2)c(C(F)(F)F)nn1-c1nccnc1OC [Ex. 105]	4.91*	–	–
CNc1c(-c2cc(Cl)cc(C(F)(F)F)c2)c(C(F)(F)F)nn1-c1nccnc1OC [Ex. 106]	4.51*	–	–
COc1nccnc1-n1nc(C(F)(F)C(F)F)c(-c2cc(Cl)c(Cl)c(Cl)c2)c1N [Ex. 116]	–	100	log P [1, 3]: 4.37**; efficacy (Spodoptera frugiperda): 100%; efficacy (Tetranychus urticae; 500 g/ha): 90%
COc1nccnc1-n1nc(C(F)(F)F)c(-c2cc(Cl)c(N(C)C)c(Cl)c2)c1N [Ex. 121]	4.46*	100	efficacy (Spodoptera frugiperda): 100%; efficacy (Tetranychus urticae; 100 g/ha): 80%
COc1nccnc1-n1nc(C(F)(F)F)c(-c2ccc(N(C)C)c(Cl)c2)c1N [Ex. 122]	3.19*	100	efficacy (Spodoptera frugiperda): 100%
COc1nccnc1-n1nc(C(F)(F)F)c(-c2cc(Cl)c(N(C)C)c(C(F)(F)F)c2)c1N [Ex. 123]	4.72*	100	efficacy (Spodoptera frugiperda): 100%; efficacy (Tetranychus urticae; 500 g/ha): 80%
COc1cc(-c2c(C(F)(F)F)nn(-c3nccnc3OC)c2N)ccc1OCC(F)(F)F [Ex. 125]	3.07*	100	efficacy (Tetranychus urticae; 500 g/ha): 90%
COc1cc(-c2c(C(F)(F)F)nn(-c3nccnc3OC)c2N)cc(C(F)(F)F)c1OC(C)C [Ex. 126]	4.28*	–	–
CCOc1cc(-c2c(C(F)(F)F)nn(-c3nccnc3OC)c2N)ccc1OCC(F)(F)F [Ex. 127]	3.68*	100	efficacy (Tetranychus urticae; 500 g/ha): 90%
Nc1c(-c2cc(Cl)cc(C(F)(F)F)c2)c(C(F)(F)F)nn1-c1nccnc1Br [Ex. 129]	4.27*	–	–
Nc1c(-c2cc(Cl)cc(C(F)(F)F)c2)c(C(F)(F)F)nn1-c1nccnc1C(F)(F)F [Ex. 130]	4.57*	100	efficacy (Spodoptera frugiperda): 100%
COc1cc(-c2c(C(F)(F)F)nn(-c3nccnc3OC)c2N)cc(Cl)c1OCC(F)(F)F [Ex. 134]	3.88*	100	efficacy (Spodoptera frugiperda): 100%
CCOc1cc(-c2c(C(F)(F)F)nn(-c3nccnc3OC)c2N)cc(Br)c1OCC(F)(F)F [Ex. 140]	4.3*	100	efficacy (Spodoptera frugiperda): 100%
COc1nccnc1-n1nc(C(F)(F)F)c(-c2ccc3c(c2)CCC(C)(C)O3)c1N [Ex. 145]	3.68*	100	–
COc1nccnc1-n1nc(C(F)(F)F)c(-c2ccc(Cl)c(SC)c2Cl)c1N [Ex. 165]	4.14*	–	–
COc1nccnc1-n1nc(C(F)(F)F)c(-c2cc(F)c(Cl)cc2Cl)c1N [Ex. 166]	3.66*	100	efficacy (Tetranychus urticae; 500 g/ha): 90%
COc1nccnc1-n1nc(C(F)(F)F)c(-c2cc(SCC(F)(F)F)c(Cl)cc2Cl)c1N [Ex. 179]	4.14*	–	–
COc1nccnc1-n1nc(C(F)(F)F)c(-c2cc(Cl)c(Cl)c(SCC(F)(F)F)c2)c1N [Ex. 180]	4.43*	–	–
COc1nccnc1-n1nc(C(F)(F)F)c(-c2cc(Cl)c(Cl)c([S+]([O-])CC(F)(F)F)c2)c1N (stereo not shown) [Ex. 182]	3.69*	–	–
C=C(C)CN(CC(=C)C)c1c(-c2cc(Cl)cc(C(F)(F)F)c2)c(C(F)(F)F)nn1-c1nccnc1OC [compound 104]	5.22*	–	–
COc1nccnc1-n1nc(C(F)(F)F)c(-c2cc(Cl)cc(C(F)(F)F)c2)c1N(C)C [compound 107, 1-(3-methoxypyrazin-2-yl)-4-[3-chloro-5-(trifluoromethyl)phenyl]-3-(trifluoromethyl)-1H-pyrazole-5-dimethylamine]	–	83	chromatographic logP ([1]; reversed-phase HPLC column, * LC-MS, acidic range, pH 2.7, 0.1% aqueous formic acid / acetonitrile, read-out: log P): 5.11
